From the NIST ThermoML archive (doi:10.1021/je500917k)

Assay: xn = mol fraction of the nth substance listed
Conditions: 100 kPa, Liquid; for speed of sound: Frequency=2 MHz

CCN1CCCC1=O [1-ethyl-2-pyrrolidinone] + CNCCO
Conditions | mass density [kg/m3] | speed of sound [m/s] | viscosity [mPa·s]
293.15 K, x1 = 0.0905 | 947.11 | 1479.8 | 9.188
293.15 K, x1 = 0.1825 | 953.11 | 1478.5 | 6.79
293.15 K, x1 = 0.2767 | 958.92 | 1478.5 | 5.162
293.15 K, x1 = 0.3731 | 964.75 | 1480.1 | 4.095
293.15 K, x1 = 0.4713 | 970.4 | 1483.1 | 3.496
293.15 K, x1 = 0.5725 | 975.84 | 1486.9 | 2.951
293.15 K, x1 = 0.6756 | 981.28 | 1491.4 | 2.648
293.15 K, x1 = 0.7808 | 986.73 | 1497.9 | 2.358
293.15 K, x1 = 0.8888 | 992.12 | 1504.7 | 2.231
293.15 K, x1 = 1 | 997.71 | 1512.1 | 2.117
303.15 K, x1 = 0.0905 | 939.11 | 1447.2 | 6.239
303.15 K, x1 = 0.1825 | 944.94 | 1445.2 | 4.715
303.15 K, x1 = 0.2767 | 950.62 | 1444.1 | 3.747
303.15 K, x1 = 0.3731 | 956.31 | 1444.9 | 3.068
303.15 K, x1 = 0.4713 | 961.92 | 1447.3 | 2.666
303.15 K, x1 = 0.5725 | 967.33 | 1450.6 | 2.339
303.15 K, x1 = 0.6756 | 972.75 | 1454.6 | 2.125
303.15 K, x1 = 0.7808 | 978.18 | 1460.6 | 1.94
303.15 K, x1 = 0.8888 | 983.56 | 1467 | 1.83
303.15 K, x1 = 1 | 989.14 | 1474.2 | 1.771
313.15 K, x1 = 0.0905 | 931.05 | 1414.1 | 4.394
313.15 K, x1 = 0.1825 | 936.73 | 1411.3 | 3.488
313.15 K, x1 = 0.2767 | 942.28 | 1409.4 | 2.89
313.15 K, x1 = 0.3731 | 947.87 | 1409.5 | 2.409
313.15 K, x1 = 0.4713 | 953.42 | 1411.6 | 2.123
313.15 K, x1 = 0.5725 | 958.78 | 1414.3 | 1.914
313.15 K, x1 = 0.6756 | 964.1 | 1418 | 1.776
313.15 K, x1 = 0.7808 | 969.61 | 1423.5 | 1.639
313.15 K, x1 = 0.8888 | 974.99 | 1429.4 | 1.546
313.15 K, x1 = 1 | 980.56 | 1436 | 1.518
323.15 K, x1 = 0.0905 | 922.92 | 1381 | 3.293
323.15 K, x1 = 0.1825 | 928.44 | 1377.6 | 2.683
323.15 K, x1 = 0.2767 | 933.89 | 1375.1 | 2.267
323.15 K, x1 = 0.3731 | 939.38 | 1374.6 | 1.943
323.15 K, x1 = 0.4713 | 944.88 | 1376.1 | 1.747
323.15 K, x1 = 0.5725 | 950.21 | 1378.3 | 1.58
323.15 K, x1 = 0.6756 | 955.61 | 1381.7 | 1.478
323.15 K, x1 = 0.7808 | 961.03 | 1386.8 | 1.41
323.15 K, x1 = 0.8888 | 966.4 | 1392.3 | 1.331
323.15 K, x1 = 1 | 971.96 | 1398.5 | 1.299
